Experimental data from US20240294551A1 (AMGEN INC., priority 2022, published 2024).
Where two headings read alike, the source gives them in different places.

Key:
MIA PaCa-2 cells = assay: MIA PaCa-2 CTG Assay (CellTiter-Glo cell viability); type: cell-based, human; conditions: second value of the cell
Method: MIA PaCa-2 CTG Assay Protocol
MIA PaCa-2 (human pancreatic carcinoma; ATCC CRL-1420) cells were cultured in RPMI 1640 medium containing 10% fetal bovine serum and 1× penicillin/streptomycin/L-glutamine. Cells were seeded in 384-well plates at a density of 1.67E+04 cells/mL and incubated at 37° C., 5% CO2, overnight. Serially-diluted compound or DMSO was added to the cells, and plates were incubated at 37° C., 5% CO2 for 72 h. Cell viability was measured using a CellTiter-Glo® Luminescent Cell Viability Assay kit (Promega) according to the manufacturer's protocol. The luminescence signal of treated samples was normalized to DMSO control, and data were analyzed using a 4-parameter logistic model to calculate IC50 values.

AsPC-1 cells = assay: AsPC-1 CTG Assay (CellTiter-Glo cell viability); type: cell-based, human; conditions: AsPC-1, 72 h, first value of the cell, read-out: G12D/C/V Cell Proliferation CTG (72 h) AsPC-1
How it was run: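 Human pancreatic AsPC-1 or colon SW620 cells in RPMI 1640 with 10% FBS, seeded overnight, then exposed to serially diluted compound for 72 h at 37 °C. CellTiter-Glo luminescence normalized to DMSO control; IC50 from a 4-parameter logistic model.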

[1] = system: Phosphorylation of ERK1/2 in AsPC-1 cells; assay: Phospho-ERK1/2 MSD Assay; type: cell-based, human
How it was run: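 Read-out: MSD electrochemiluminescent detection of phosphorylated ERK1/2 in whole-cell lysates, fitted to a 4-parameter logistic curve for IC50. Prior to lysis, AsPC-1 cells (25,000 per well) received a 2 h compound dose-response at 37 °C.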

[2] = biological target: His-tagged KRAS G12D protein (Homo sapiens (Human), UniProt P01116, G12D); assay: KRAS G12D TR-FRET Assay; type: binding; conditions: read-out: KRAS G12D Binding IC50
Chain of His-tagged KRAS G12D protein (P01116 other isoform, or with tags, fused parts or gaps G12D): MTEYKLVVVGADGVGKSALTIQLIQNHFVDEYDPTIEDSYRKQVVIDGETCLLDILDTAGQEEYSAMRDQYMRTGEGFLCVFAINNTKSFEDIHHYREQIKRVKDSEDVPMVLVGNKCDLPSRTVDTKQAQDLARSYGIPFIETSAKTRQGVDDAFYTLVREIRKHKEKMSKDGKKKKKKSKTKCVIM
How it was run: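 His-tagged KRAS G12D (diluted to 20 nM in pH 7.4 HEPES buffer with 10 mM MgCl2 and 10 μM GDP) was preincubated with titrated compound for 30 min at room temperature. Biotinylated KRPep-2d peptide (diluted to 20 nM) was then added for 1 h, and displacement was monitored by TR-FRET.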

[3] = biological target: GDP-bound KRAS protein (aa 1-169), containing both G12D and C118A amino acid substitutions (Homo sapiens (Human), UniProt P01116, C118A/G12D); assay: KRAS G12D Coupled Nucleotide Exchange Assay; type: biochemical; conditions: read-out: KRAS G12D Coupled Exchange IC50
Chain of GDP-bound KRAS protein (aa 1-169), containing both G12D and C118A amino acid substitutions (P01116 other isoform, or with tags, fused parts or gaps G12D/C118A): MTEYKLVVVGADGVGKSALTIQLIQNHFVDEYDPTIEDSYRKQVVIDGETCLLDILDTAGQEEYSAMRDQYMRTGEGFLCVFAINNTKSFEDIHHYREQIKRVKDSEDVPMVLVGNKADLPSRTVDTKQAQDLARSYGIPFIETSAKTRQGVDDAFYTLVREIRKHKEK

[4] = Homo sapiens, Mia PaCa-2, 72 h, read-out: G12D/C/V Cell Proliferation CTG (72 h) Mia PaCa-2
[5] = Homo sapiens, ASPC1, 2 h, read-out: 2 h p-ERK (AsPC-1 cells), IC50
[6] = 2 h, read-out: 2 h p-ERK (AsPC-1 cells), IC50

Row | IC50 (MIA PaCa-2 cells; [4]) | IC50 (AsPC-1 cells; Homo sapiens, ASPC1, 72 h) | IC50 [1, 5] | IC50 [2] | IC50 [3] | IC50 (MIA PaCa-2 cells; Mia PaCa-2, 72 h, read-out: G12D/C/V Cell Proliferation CTG (72 h) Mia PaCa-2) | IC50 (AsPC-1 cells) | IC50 [1, 6] | IC50 (MIA PaCa-2 cells; Homo sapiens, MIA PaCa-2 cells (G12C), 72 h, read-out: G12D/C/V Cell Proliferation CTG (72 h) MIA PaCa-2) | IC50 ([1]; Homo sapiens, ASPC1, 2 h, read-out: 2 h p-ERK (AsPC-1 cells)) | Structure (SMILES)
1 | 28 nM | 270 nM | 40.2 nM | 6 nM | 5 nM |  |  |  |  |  | Fc1c2ncc3c(nc(OC[C@@]45CCCN4C[C@H](F)C5)nc13)N1CCO[C@]3(C1)C[C@@H](C3)OCCCCc1c(Cl)cc3[nH]ncc3c1-2 (single isomer, unassigned) [Example 261]
2 |  |  |  | 4 nM | 3 nM | 120 nM | 230 nM | 13 nM |  |  | O=C1CC[C@@H]2C[C@@H]2c2c(Cl)cc3[nH]ncc3c2-c2ncc3c(nc(OC[C@@]45CCCN4C[C@H](F)C5)nc3c2F)N2CCC[C@H](C2)O1 [Example 127]
3 | 100 nM | 650 nM | 83 nM | 5 nM | 4 nM |  |  |  |  |  | Fc1c2ncc3c(nc(OC[C@@]45CCCN4C[C@H](F)C5)nc13)N1CCCO[C@@H](COCCCCc3c(Cl)cc4[nH]ncc4c3-2)C1 [Example 140]
4 | 42 nM | 29 nM | 11.6 nM | 6 nM | 4 nM |  |  |  |  |  | Fc1c2ncc3c(nc(OC[C@@]45CCCN4C[C@H](F)C5)nc13)N1CCC[C@@H](Cc3ncc(o3)CCc3c(Cl)cc4[nH]ncc4c3-2)C1 [Example 231]
5 | 10 nM | 108 nM | 5 nM | 3 nM | 1 nM |  |  |  |  |  | CN(C)CC1(COc2nc3c4cnc(c(F)c4n2)-c2cc(O)cc4ccc(F)c(c24)CCCC(=O)N[C@]2(C)CCCN3C2)CC1 [Example 22, (15R)-8-((1-((Dimethylamino)methyl)cyclopropyl)methoxy)-22,31-difluoro-27-hydroxy-15-methyl-3,7,9,11,16-pentaazahexacyclo[19.7.1.1˜2,6˜.1˜11,15˜.0˜5,10˜.0˜25,29˜]hentriaconta-1(28),2(31),3,5,7,9,21,23,25(29),26-decaen-17-one bis(2,2,2-trifluoroacetate)]
6 |  |  |  |  |  |  |  |  | 12 nM | 10.4 nM | Fc1c2ncc3c(nc(OC[C@@]45CCCN4C[C@H](F)C5)nc13)N1CCOC[C@H](C1)c1noc(n1)CCCc1c(Cl)cc3[nH]ncc3c1-2 [Example 381]
7 | 380 nM |  | 103 nM | 15 nM | 4 nM |  |  |  |  |  | C[C@@]12COCCN(C1)c1nc(OC[C@@]34CCCN3C[C@H](F)C4)nc3c(F)c(ncc13)-c1cccc3ccc(F)c(c13)CCOC(=O)O2 [Example 304, (16S)-23,32-difluoro-8-(((2R,7aS)-2-fluorotetrahydro-1H-pyrrolo[1,2-a]pyrrol-7a(5H)-yl)methoxy)-16-methyl-14,17,19-trioxa-3,7,9,11-tetraazahexacyclo[20.7.1.1~2,6~.1~11,16~.0~5,10~.0~26,30~]dotriaconta-1(30),2(32),3,5,7,9,22,24,26,28-decaen-18-one]
8 | 82 nM |  |  |  |  |  | 112 nM | 10.1 nM |  |  | Fc1c2ncc3c(nc(OC[C@@]45CCCN4C[C@H](F)C5)nc13)N1CCC[C@H](C1)c1coc(n1)CCCc1c(Cl)cc3[nH]ncc3c1-2 [Example 246, (18R)-9-chloro-31-fluoro-25-(((2R,7aS)-2-fluorotetrahydro-1H-pyrrolo[1,2-a]pyrrol-7a(5H)-yl)methoxy)-15-oxa-5,6,22,24,26,30,33-heptaazaheptacyclo[25.3.1.1~14,17~.1~18,22~.0~2,10~.0~3,7~.0~23,28~]tritriaconta-1(31),2,4,7,9,14(33),16,23,25,27,29-undecaene]
9 | 320 nM |  | 262 nM | 10 nM | 4 nM |  |  |  |  |  | C[C@@]12COCCN(C1)c1nc(OC[C@@]34CCCN3C[C@H](F)C4)nc3c(F)c(ncc13)-c1cccc(Cl)c1CCCOC(=O)O2 [Example 200, (23S)-15-chloro-29-fluoro-4-(((2R,7aS)-2-fluorotetrahydro-1H-pyrrolo[1,2-a]pyrrol-7a(5H)-yl)methoxy)-23-methyl-20,22,25-trioxa-1,3,5,9-tetraazapentacyclo[21.4.1.1~6,10~.0~2,7~.0~11,16~]nonacosa-2,4,6,8,10(29),11,13,15-octaen-21-one]
10 | 480 nM | 980 nM | 109 nM |  |  |  |  |  |  |  | Fc1c2ncc3c(nc(OC[C@@]45CCCN4C[C@H](F)C5)nc13)N1CCC[C@@H](CSCCCCc3c(Cl)cc4[nH]ncc4c3-2)C1 [Example 143]
11 | 67 nM | 375 nM | 21.8 nM |  |  |  |  |  |  |  | Cc1cc2[nH]ncc2c2c1CCCOC(=O)O[C@@H]1COCCN(C1)c1nc(OC[C@@]34CCCN3C[C@H](F)C4)nc3c(F)c-2ccc13 [Example 192, (26S)-32-fluoro-4-(((2R,7aS)-2-fluorotetrahydro-1H-pyrrolo[1,2-a]pyrrol-7a(5H)-yl)methoxy)-18-methyl-23,25,28-trioxa-1,3,5,14,15-pentaazahexacyclo[24.4.1.1~6,10~.0~2,7~.0~11,19~.0~12,16~]dotriaconta-2,4,6,8,10(32),11,13,16,18-nonaen-24-one]
12 |  | 645 nM | 30.4 nM | 5 nM | 2 nM |  |  |  |  |  | Cc1cc2[nH]ncc2c2c1CCOC(=O)O[C@H]1C[C@]3(CCCN(C3)c3nc(OC[C@@]45CCCN4C[C@H](F)C5)nc4cc-2ncc34)C1 [Example 349, (1R,3S)-24-(((2R,7aS)-2-fluorotetrahydro-1H-pyrrolo[1,2-a]pyrrol-7a(5H)-yl)methoxy)-10-methyl-4,6-dioxa-13,14,19,23,25,27-hexaazaheptacyclo[25.3.1.1~1,3~.1~18,22~.0~9,17~.0~12,16~.0~21,26~]tritriaconta-9,11,14,16,18(32),19,21,23,25-nonaen-5-one]
13 |  | 1180 nM | 109 nM | 10 nM | 3 nM |  |  |  |  |  | O=C1OC[C@H]2C[C@@H]2c2c(Cl)cc3[nH]ncc3c2-c2ncc3c(nc(OC[C@@]45CCCN4C[C@H](F)C5)nc3c2F)N2CCC[C@H](C2)O1 (mixture of isomers) [Example 113]
14 |  | 1200 nM | 67.8 nM | 9 nM | 6 nM |  |  |  |  |  | C[C@@H]1CCOC[C@H]2CN(CCO2)c2nc(OC[C@@]34CCCN3C[C@H](F)C4)nc3c(F)c(ncc23)-c2c(c(Cl)cc3[nH]ncc23)C1 [Example 253, (12S,17R)-9-chloro-30-fluoro-24-(((2R,7aS)-2-fluorotetrahydro-1H-pyrrolo[1,2-a]pyrrol-7a(5H)-yl)methoxy)-12-methyl-15,18-dioxa-5,6,21,23,25,29-hexaazahexacyclo[24.3.1.1~17,21~.0~2,10~.0~3,7~.0~22,27~]hentriaconta-1(30),2,4,7,9,22,24,26,28-nonaene]
15 |  | 788 nM | 41.3 nM | 5 nM | 2 nM |  |  |  |  |  | O=C1N[C@@H]2C[C@H](O)CN(C2)c2nc(OC[C@@]34CCCN3C[C@H](F)C4)nc3c(F)c(ncc23)-c2c(c(Cl)cc3[nH]ncc23)CCCO1 [Example 284, (17R,19S)-9-chloro-30-fluoro-24-(((2R,7aS)-2-fluorotetrahydro-1H-pyrrolo[1,2-a]pyrrol-7a(5H)-yl)methoxy)-19-hydroxy-14-oxa-5,6,16,21,23,25,29-heptaazahexacyclo[24.3.1.1~17,21~.0~2,10~.0~3,7~.0~22,27~]hentriaconta-1(30),2,4,7,9,22,24,26,28-nonaen-15-one]
16 |  | 178 nM | 17.1 nM | 4 nM | 2 nM |  |  |  |  |  | Cc1cc2[nH]ncc2c2c1CCCOC(=O)N[C@]1(C)CCCCN(C1)c1nc(OC[C@@]34CCCN3C[C@H](F)C4)nc3c(F)c-2ncc13 [Example 292, (26R)-32-fluoro-4-(((2R,7aS)-2-fluorotetrahydro-1H-pyrrolo[1,2-a]pyrrol-7a(5H)-yl)methoxy)-18,26-dimethyl-23-oxa-1,3,5,9,14,15,25-heptaazahexacyclo[24.4.1.1~6,10~.0~2,7~.0~11,19~.0~12,16~]dotriaconta-2,4,6(32),7,9,11,13,16,18-nonaen-24-one]
